Experimental data published in patent publication US11542283B2, “Synthesis of peptide borate ester compound and use thereof” (JIANGSU CHIA TAI FENGHAI PHARMACEUTICAL CO., LTD., priority 2018, dated 2023).
Like-named read-outs stand apart in the source and are kept apart here. Each block holds one compound with its values, some of them ahead of it.

Key:
[1] = target: human erythrocyte 20S proteasome (Homo sapiens (Human), UniProt P28074); experiment: Assay of inhibition on proteasome activity (chymotrypsin-like, Suc-LLVY-AMC substrate); type: biochemical
Source text: The proteasome used in the present invention is human erythrocyte 20S proteasome, and the enzyme, fluorescent substrate and test buffer are all purchased from Enzo.

[2] = In-vivo pharmacokinetic evaluation in SD rats; conditions: male SD rats; for AUC(0-t) / MRT last / half-life / bioavailability: rat, plasma; for AUC(0-t) / MRT last / half-life / CL_obs / Vz_obs: 2.0 mg/kg; for bioavailability: oral, p.o. 2.0 mg/kg vs i.v. 2.0 mg/kg, read-out: F (oral bioavailability); for CL_obs / Vz_obs: i.v.
Description: Twelve male SD rats weighing 220±20g, were randomly divided into four groups.
Two groups were respectively given IV-9 and V-9A by tail vein injection at doses given in a table below, and before and 10 min, 20 min. 30 min, 1 h, 2 h, 4 h, 8 h, 12 h, 24 h and 36 h after administration, about 0.200 mL of blood was collected from the jugular vein, placed in a test tube containing EDTA-K2, and centrifuged at a high speed (7800×g) for 15 min. The plasma was separated, and stored at −15° C. to −35° C. The pharmacokinetic differences of IV-9 and V-9A administered by intravenous injection were compared.
The other two groups were respectively given IV-9 and V-9A by oral gavage at doses given in a table below, and before and 5 min, 10 min, 20 min, 30 min, 1 h, 2 h, 4 h, 8 h, 12 h, 24 h and 36 h after administration, about 0.200 mL of blood was collected from the jugular vein, placed in a test tube containing EDTA-K2, and centrifuged at a high speed (7800×g) for 15 min. The plasma was separated, and stored at −15° C. to −35° C. The pharmacokinetic differences of IV-9 and V-9A administered by oral gavage were compared.

ARH-77 xenograft tumors = experiment: Evaluation in animal model of xenotransplantation (ARH-77 xenograft); type: in vivo, Balb/c nude mice; conditions: oral; for RTV Mean / T/C / TGI (tumor inhibition rate) / TV Mean: three weeks
Description: The human multiple myeloma cell line ARH-77 was used to implant tumors under the skin of Balb/enude mice to establish a transplanted tumor model. The specific experimental process is as follows.
1. 4-6 week-old Balb/c nude mice purchased from Shanghai Bikai Laboratory Animal Co., Ltd., were transferred to a barrier system to adapt to the environment for one week.
2. The cells were cultured to the logarithmic growth phase, digested, centrifuged, re-suspended in Matrigel at a density of 1×10^7 cells/ml, and placed on ice for later use. In the barrier system, the tumor cells were inoculated into the axilla of the animal's right forelimb in an amount of 1×10^6 cells per animal, and the inoculation volume for each animal was 100 microliters.
3. The animals were grown and the tumor volume was measured by a vernier caliper. When the average volume was increased to 100-150 mm^3, the animals were randomly divided into three groups including a blank control group, a positive drug group (Compound MLN-9708) and an experimental group […]), each group having 6 animals.
The formula for calculating tumor volume is: Volume(mm3)=0.5×(Length(mm)×Width(mm)2)
4. The compound used was formulated with a 5% R-sulfobutyl cyclodextrin sodium aqueous solution to give an appropriate concentration, ultrasonicated until the solution became clear, and then stored in a refrigerator at 4° C. for later use.
5. The mice were orally administered. The frequency of administration for the positive drug group was twice a week, and the dosage was 5 mg/kg. The mice in the experimental group were administered daily, and the dosage was 1 mg/kg. The administration was continuous for three weeks, and then the mice were sacrificed to end the experiment. During this process, the tumor volume was measured and recorded twice a week. The inhibitory effect of agents on tumor growth was calculated by the GraphPad Prism software.

[3] = target: proteasome activity in blood cells (Mus musculus (Mouse), UniProt O55234); experiment: In-vivo pharmacodynamics: proteasome activity in blood cells; conditions: ICR mice, oral single dose 2 mg/kg
proteasome activity in blood cells, sequence (O55234 60-264): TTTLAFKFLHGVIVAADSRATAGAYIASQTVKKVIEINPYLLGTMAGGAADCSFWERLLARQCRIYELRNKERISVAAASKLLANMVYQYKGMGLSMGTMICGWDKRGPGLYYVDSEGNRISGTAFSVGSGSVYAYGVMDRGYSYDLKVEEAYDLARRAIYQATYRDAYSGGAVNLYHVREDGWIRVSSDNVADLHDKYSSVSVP
Description: The compound designed in the present invention can be used to treat malignant tumors of the blood system, so the efficacy of the compound was evaluated by detecting the activity of the proteasome in the blood after single administration, and the in-vivo pharmacodynamic study can be carried out by blood sampling at different time points.
1. 8 week-old ICR mice purchased from Shanghai Bikai Laboratory Animal Co., Ltd., were transferred to a barrier system to adapt to the environment for one week.
2. The animals were divided into three groups, including a positive control group (MLN9708) and two experimental groups (IV-9, V-9A), each group having 3 animals.
3. Before administration, 100 μL of blood was sampled from each animal from the orbital venus plexus and used as the blank control, and the proteasome activity measured in blood cells in this sample was taken as 100%. 1 and 24 hrs after administration, blood was sampled from the orbital venus plexus, and the proteasome activity in blood cells was detected. The inhibitory effect of the drug on proteasome activity and recovery of proteasome activity in blood was obtained by comparison with the data at time 0.
4. […]
5. […] A cell lysing solution was added for protein quantification to correct the detected value. […] The dilution was further reacted with the fluorescent peptide substrate to detect the proteasome activity on a microplate reader.

- IC50 [1]: 5.69 nM
- AUC(0-t) ([2]; Sprague-Dawley (SD), iv): 2550 ng·h/mL
- MRT last ([2]; Sprague-Dawley (SD), iv): 2.18 h
- half-life ([2]; Sprague-Dawley (SD), iv): 3.1 h
- bioavailability ([2]; Sprague-Dawley (SD)): 24.9%
- AUC(0-t) ([2]; Sprague-Dawley (SD), po): 634 ng·h/mL
- MRT last ([2]; Sprague-Dawley (SD), po): 3.37 h
- half-life ([2]; Sprague-Dawley (SD), po): 2.88 h
- CL_obs [2]: 11.2 mL/min/kg
- Vz_obs [2]: 3.01 L/kg
- inhibitory activity on proteasome in blood cells ([3]; 1 hr after administration, compared with MLN9708 5 mg/kg): even better inhibitory activity
- proteasome activity in blood cells recovered, of the activity in the control group ([3]; 24 hrs after administration): 40%
SMILES: CSC[C@H](NC(=O)c1cc(Cl)ccc1Cl)C(=O)N[C@@H](CC(C)C)B1OCCNCCO1 [Compound V-9A, (R)-diethanolamine N-(2,5-dichlorobenzoyl)-3-methylmercaptopropionamido-D-leucine borate]
- TW Mean (Day 21) (ARH-77 xenograft tumors; 1 mg/kg daily): 0.65 g
- RTV Mean (ARH-77 xenograft tumors; 1 mg/kg daily): 3.72
- T/C (ARH-77 xenograft tumors; 1 mg/kg daily): 24.02%
- TGI (tumor inhibition rate) (ARH-77 xenograft tumors; 1 mg/kg daily): 63.48%
- TV Mean (ARH-77 xenograft tumors; 1 mg/kg daily): 354.78 mm^3

- IC50 [1]: 6.6 nM
SMILES: CSC[C@H](NC(=O)c1cc(Cl)ccc1Cl)C(=O)N[C@@H](CC(C)C)B1OC(=O)CC(CC(=O)O)(C(=O)O)O1 (stereo partly drawn) [Compound V-9B, (R)-N-(2,5-dichlorobenzoyl)-3-methylmercaptopropionamido-D-leucine borate citratte]

- CL_obs [2]: 16.4 mL/min/kg
- Vz_obs [2]: 2.914 L/kg
- AUC(0-t) ([2]; iv): 1890 ng·h/mL
- MRT last ([2]; iv): 1.55 h
- half-life ([2]; iv): 2.08 h
- bioavailability [2]: 11%
- AUC(0-t) ([2]; po): 208 ng·h/mL
- MRT last ([2]; po): 2.35 h
- half-life ([2]; po): 2.14 h
SMILES: CSC[C@H](NC(=O)c1cc(Cl)ccc1Cl)C(=O)N[C@@H](CC(C)C)B(O)O [IV-9]

SMILES: CC(C)C[C@H](NC(=O)CNC(=O)c1cc(Cl)ccc1Cl)B1OC(=O)CC(CC(=O)O)(C(=O)O)O1 (stereo partly drawn) [MLN9708, reference compound]
- TW Mean (Day 21) (ARH-77 xenograft tumors; 5 mg/kg twice a week): 1.33 g
- RTV Mean (ARH-77 xenograft tumors; 5 mg/kg twice a week): 9.13
- T/C (ARH-77 xenograft tumors; 5 mg/kg twice a week): 58.94%
- TGI (tumor inhibition rate) (ARH-77 xenograft tumors; 5 mg/kg twice a week): 25.28%
- TV Mean (ARH-77 xenograft tumors; 5 mg/kg twice a week): 1042.71 mm^3
- TGI (tumor inhibition rate) (ARH-77 xenograft tumors; 5 mg/kg twice a week, listed as MLN-9708): 25.28%
